Results reported in publication PMC11352273, “The Proapoptotic Action of Pyrrolidinedione–Thiazolidinone Hybrids towards Human Breast Carcinoma Cells Does Not Depend on Their Genotype” (Cancers, 2024).
Where two headings read alike, the source gives them in different places.

How the values were obtained:
MCF-10A cells [1] = assay: MTT assay; assay type: cell-based, human; details: Homo sapiens, MCF-10A, MCF-10A
Experimental: (§1) The MCF-7 and MDA-MB-231 cells were cultured in the DMEM medium containing 10% of the FBS, HCC1954, T-47D, and 4T1 cells in the RPMI-1640 medium with the addition of 10% of the FBS, and MCF-10A cells in MEGM Mammary Epithelial Cell Growth Medium BulletKit supplemented with penicillin/streptomycin cocktail and 5% of horse serum. The cells were cultured in a […] atmosphere at 5% CO2 and 37 °C. After trypsinization, cells were counted using a Scepter 3.0 handheld automated cell counter (Millipore, Burlington, MA, USA).
(§2) The MTT test was used to assess the metabolic activity of cells treated with the investigated substances following the Sigma-Aldrich manufacturer’s instructions. Briefly, compounds were added in 100 µL of the cultural medium, and cells were incubated for the next 24 and 48 h. Doxorubicin was used as a reference drug. The DMSO was added to dissolve the crystals of formazan. We used the ThermoScientific Evolution 201 UV–VIS spectrophotometer (ThermoFisher Scientific, Waltham, MA, USA) to measure the absorbance of formazan at 570 nm. The initial value of the relative number of cells in control (under 0.1% of the DMSO) was accepted as 100%. We used GraphPad Prism Version 9 to calculate the half-maximal inhibition concentration (IC50) of the studied compounds (the concentration of the drug that reduced cell viability by 50%).

MDA-MB-231 cells = assay: MTT assay; assay type: cell-based; details: Homo sapiens, read-out: IC50, µM (M ± SD)
Experimental: as §1, §2

MCF-7 cells = assay: MTT assay; assay type: cell-based; details: Homo sapiens, read-out: IC50, µM (M ± SD)
Experimental: as §1, §2

T-47D cells = assay: MTT assay; assay type: cell-based; details: Homo sapiens, T47D, read-out: IC50, µM (M ± SD)
Experimental: as §1, §2

HCC1954 cells [2] = assay: MTT assay; assay type: cell-based; details: Homo sapiens, read-out: IC50, µM (M ± SD)
Experimental: as §1, §2

MCF-10A cells [3] = assay: Clonogenic assay; assay type: cell-based; details: Homo sapiens; for IC50: 72 h exposure, 14 days culture, read-out: IC50 (M ± SD) in clonogenic assay
Experimental: The clonogenic assay was carried out utilizing the previously published methodology. The MCF-7, MDA-MB-231, HCC1954, and MCF-10A cells (500 cells/2 mL) were seeded in a 12-well plate overnight. Afterward, studied derivatives or doxorubicin (1, 2.5, 5, 10, and 50 µM) were added to cells. The media was changed after 72 h to a compound-free one, and the cells were cultured for the following 14 days. Then, the cells were washed, fixed, and stained with 0.1% crystal violet. After washing, the plates were dried at room temperature. The colonies were recorded by ImageJ software (Version 1.30). The value of colonies in control (non-treated cells) was accepted as 100%. The effect of compounds on the colony-forming ability of cells was expressed as the percentage of colonies compared to the control.

MAP1LC3B in MCF-7 cells = assay: qPCR gene expression; assay type: cell-based, human; details: MCF-7, 24 h, 1 µM
Experimental: (§3) Total RNA was isolated using the RNeasy Mini Kit (Qiagen, Venlo, The Netherlands) according to the manufacturer’s protocol and quantified on a NanoDrop spectrophotometer (NanoDrop™ One/OneC, ThermoFisher, Waltham, MA, USA). Next, 1 μg of RNA from every sample was reverse transcribed using a High-Capacity cDNA Reverse Transcription Kit (ThermoFisher, Waltham, MA, USA) according to the standard manufacturer’s instructions. The expression of genes, namely MAP1LC3b (Bio-Rad, Hercules, CA, USA) and BECN1 (Bio-Rad, Hercules, CA, USA), was evaluated using SsoAdvanced Universal SYBR Green Supermix (Bio-Rad, Hercules, CA, USA) on the StepOne Plus system (ThermoFisher, Waltham, MA, USA). StepOne Software v2.3 (Thermo Fisher Scientific, Waltham, MA, USA) was used for results calculations. The results were normalized to GAPDH (Bio-Rad, Hercules, CA, USA) and untreated cells (control). Data were presented as a relative expression using the 2^−ΔΔCt method.

BECN1 in MCF-7 cells = assay: qPCR gene expression; assay type: cell-based, human; details: MCF-7, 24 h, 1 µM
Experimental: as §3

[4] = system: MAP1LC3B in MDA-MB-231 cells; assay: qPCR gene expression; assay type: cell-based, human; details: MDA-MB-231, 24 h, 1 µM
Experimental: as §3

[5] = system: BECN1 in MDA-MB-231 cells; assay: qPCR gene expression; assay type: cell-based, human; details: MDA-MB-231, 24 h, 1 µM
Experimental: as §3

4T1 cells = assay: MTT assay; assay type: cell-based, murine; details: Mus musculus, read-out: IC50, µM (M ± SD)
Experimental: as §1, §2

HCC1954 cells [6] = assay: [3H]-thymidine incorporation assay; assay type: cell-based; details: Homo sapiens; HCC1954, 24 h; read-out: IC50 (M ± SD) in [3H]-thymidine assay (DNA synthesis)
Experimental: Following a 24 h cell treatment, the incorporation of [^3H]-thymidine into the DNA of the breast tumor and normal cells was used to measure the antiproliferative activity of Les-6287. The MCF-7, MDA-MB-231, HCC1954, and MCF-10A cells were seeded into six-well plates (density 3 × 10^5 cells/well) and cultured for 24 h. Then, they were incubated under the same conditions for the next 24 h with a growth medium containing the tested compounds and reference drug (doxorubicin) at different concentrations (1, 2.5, 5, 10, 50 µM). After 24 h, the medium was changed to a fresh one without FBS. A total of 0.5 µCi of tritium-labeled thymidine (specific activity: 7 Ci/mmol) was added to cells for 4 h. The cells were washed with 1 mL of 0.05 M Tris-HCl buffer pH 7.4 containing 0.11 M NaCl and 1 mL of 5% trichloroacetic acid (TCA). Each well was filled with 1 mL of a 0.1 M NaOH solution containing 1% SDS to complete cell lysis. After 5 min, the acquired cell lysates were put into scintillation vials and pre-filled with two milliliters of scintillation liquid. The Scintillation Counter 1900 TR, TRI-CARB (Packard, Perkin Elmer, Inc., San Jose, CA, USA) was used to record the results. The effect of compounds on DNA synthesis was expressed as % of the control (non-treated cells).

[7] = 24 h, 24 h, read-out: IC50, µM (M ± SD)
[8] = 48 h, 48 h, read-out: IC50, µM (M ± SD)

Compound	IC50 (MCF-10A cells [1]; [7]) [µM]	IC50 (MCF-10A cells [1]; [8]) [µM]	IC50 (MDA-MB-231 cells; MDA-MB-231, 24 h) [µM]	IC50 (MDA-MB-231 cells; MDA-MB-231, 48 h) [µM]	IC50 (MCF-7 cells; MCF7, MCF-7, 24 h) [µM]	IC50 (MCF-7 cells; MCF7, MCF-7, 48 h) [µM]	IC50 (T-47D cells; 24 h) [µM]	IC50 (T-47D cells; 48 h) [µM]	IC50 (HCC1954 cells [2]; HCC1954, 24 h) [µM]	IC50 (HCC1954 cells [2]; HCC1954, 48 h) [µM]	IC50 (MCF-10A cells [3]) [nM]	MAP1LC3B gene expression compared to control cells (MAP1LC3B in MCF-7 cells)	BECN1 gene expression compared to control cells (BECN1 in MCF-7 cells)	MAP1LC3B gene expression compared to control cells [4]	BECN1 gene expression compared to control cells [5]	IC50 (4T1 cells; 4T1, 24 h) [µM]	IC50 (4T1 cells; 4T1, 48 h) [µM]	IC50 (HCC1954 cells [6]) [nM]	IC50 (MCF-10A cells [1]; time point not specified (24 and 48 h), read-out: IC50 towards MCF-10A cells) [µM]	inhibition at 50 µM (MCF-10A cells [3]; compound at 50 µM, read-out: inhibition of the formation of colonies) [%]
COc1cccc2c1C(=O)c1c(O)c3c(c(O)c1C2=O)C[C@@](O)(C(=O)CO)C[C@@H]3O[C@H]1C[C@H](N)[C@H](O)[C@H](C)O1 [Dox, doxorubicin, reference compound]	15.9 ± 0.91	0.23 ± 0.05	6.18 ± 0.08	1.09 ± 0.09	3.47 ± 0.49	0.18 ± 0.07	3.66 ± 0.33	2.31 ± 0.24	1.9 ± 0.11	1.15 ± 0.16	470 ± 110	significantly increased	significantly increased	significantly increased	significantly increased	2.37 ± 0.25	1.98 ± 0.21	1070 ± 40	–	–
O=C1CC(N2C(=O)C(=CC(Cl)=Cc3ccc([N+](=O)[O-])cc3)SC2=S)C(=O)N1c1ccc(O)cc1 (centres unmarked) [Les-6287, 1-(4-hydroxyphenyl)-3-[5-[2-chloro-3-(4-nitrophenyl)prop-2-enylidene]-4-oxo-2-thioxothiazolidine-3-yl]pyrrolidine-2,5-dione]	93 ± 2.29	64.6 ± 0.68	3.86 ± 0.24	1.37 ± 0.15	2.34 ± 0.16	1.43 ± 0.18	3.11 ± 0.19	1.74 ± 0.25	2.52 ± 0.65	2.25 ± 0.64	> 50000	did not affect	did not affect	did not affect	did not affect	1.6 ± 0.14	1.62 ± 0.21	3670 ± 90	> 64.6	32.6
